Measured values published in ChEMBL document CHEMBL1121775, “Synthesis and antimalarial effects of N2-aryl-N4-[(dialkylamino)alkyl]- and N4-aryl-N2-[(dialkylamino)alkyl]-2,4-quinazolinediamines” (J Med Chem, 1981).
“And” between values parts separate entries of the source, which are not always exact repeats. Equal values may be shown once.

Legend:
[1] = system: Mus musculus; test: Number of mice cured at a subcutaneous dose of 320 mg/kg.; format: functional
[2] = system: Plasmodium berghei; test: Antimalarial activity against trophozoite-induced Plasmodium berghei in mice (Mus musculus); format: functional
[3] = system: Plasmodium berghei; test: Antimalarial effect against trophozoite-induced Plasmodium berghei in mice (Mus musculus) at 80 mg/kg subcutaneous dose; format: functional
[4] = system: Plasmodium berghei; test: Antimalarial effect against trophozoite-induced Plasmodium berghei in mice (Mus musculus) at 320 mg/kg subcutaneous dose; format: functional
[5] = system: Plasmodium berghei; test: Antimalarial effect against trophozoite-induced Plasmodium berghei in mice (Mus musculus) after 40 mg/kg subcutaneous dose; format: functional
[6] = system: Plasmodium berghei; test: Antimalarial effect against trophozoite-induced Plasmodium berghei in mice (Mus musculus) at 160 mg/kg subcutaneous dose; format: functional
[7] = The ratio of SD90 of the quinine hydrochloride, to the SD90 of the test substance for the Dose of 18.5 mg/kg; format: functional
[8] = system: Plasmodium berghei; test: (§1) Antimalarial effect against trophozoite-induced Plasmodium berghei in mice (Mus musculus) at 640 mg/kg subcutaneous dose; format: functional
[9] = system: Plasmodium berghei; test: Antimalarial effect against trophozoite-induced Plasmodium berghei in mice (Mus musculus) after 20 mg/kg subcutaneous dose; format: functional
[10] = system: Mus musculus; test: Number of mice cured at a subcutaneous dose of 160 mg/kg.; format: functional
[11] = system: Mus musculus; test: Number of toxic deaths at a dose of 640 mg/kg; format: toxicity, organism-based; design: dose 640 mg/kg; conditions: in vivo
[12] = system: Plasmodium berghei; test: Antimalarial activity against trophozoite-induced Plasmodium berghei in mice (Mus musculus) at 160 mg/kg subcutaneous dose; format: functional
[13] = system: Mus musculus; test: Number of mice cured at a dose of 640 mg/kg sc; format: functional; conditions: route subcutaneous
[14] = The ratio of SD90 of the quinine hydrochloride, to the SD90 of the test substance for the Dose of 47 mg/kg; format: functional
[15] = system: Plasmodium berghei; test: as §1; format: functional; remark: listed apart in the source
[16] = The ratio of SD90 of the quinine hydrochloride, to the SD90 of the test substance for the Dose of mg/kg; format: functional
[17] = system: Mus musculus; test: Number of mice cured at a dose 160 mg/kg sc; format: functional; conditions: route subcutaneous
[18] = system: Mus musculus; test: Antimalarial effect against trophozoite-induced Plasmodium berghei in mice (Mus musculus) at dosage of 320 mg/kg after subcutaneous administration;; format: functional
[19] = system: Mus musculus; test: Antimalarial effect against trophozoite-induced Plasmodium berghei in mice (Mus musculus) at dosage of 20 mg/kg after subcutaneous administration.; format: functional
[20] = The ratio of SD90 of the quinine hydrochloride, to the SD90 of the test substance for the Dose of 22 mg/kg; format: functional
[21] = system: Mus musculus; test: Number of toxic deaths at a dose of 320 mg/kg; format: toxicity, organism-based; design: dose 320 mg/kg; conditions: in vivo
[22] = The ratio of SD90 of the quinine hydrochloride, to the SD90 of the test substance for the Dose of 82 mg/kg; format: functional
[23] = system: Mus musculus; test: Antimalarial effect against trophozoite-induced Plasmodium berghei in mice (Mus musculus) at dosage of 640 mg/kg after subcutaneous administration; No. of mice (Mus musculus) surviving after 60 days 4; format: functional
[24] = The ratio of SD90 of the quinine hydrochloride, to the SD90 of the test substance for the Dose of 9.2 mg/kg; format: functional
[25] = system: Mus musculus; test: Number of mice cured at a subcutaneous dose of 640 mg/kg.; format: functional
[26] = The ratio of SD90 of the quinine hydrochloride, to the SD90 of the test substance for the Dose of 16 mg/kg; format: functional
[27] = system: Mus musculus; test: Number of mice cured at a dose of 320 mg/kg sc; format: functional; conditions: route subcutaneous
[28] = The ratio of SD90 of the quinine hydrochloride, to the SD90 of the test substance for the Dose of 35 mg/kg; format: functional
[29] = system: Mus musculus; test: Antimalarial effect against trophozoite induced Plasmodium berghei in mice (Mus musculus) at dosage of 160 mg/kg after subcutaneous administration; No. of mice (Mus musculus) surviving after 60 days 1; format: functional
[30] = system: Mus musculus; test: No of toxic deaths at dose of 640 mg/kg; format: ADME, organism-based; design: dose 640 mg/kg; conditions: in vivo
[31] = The ratio of SD90 of the quinine hydrochloride, to the SD90 of the test substance for the Dose of 97 mg/kg/day; format: functional
[32] = The ratio of SD90 of the quinine hydrochloride, to the SD90 of the test substance for the Dose of 91 […]; format: functional
[33] = The ratio of SD90 of the quinine hydrochloride, to the SD90 of the test substance for the Dose of 63 mg/kg; format: functional
[34] = The ratio of SD90 of the quinine hydrochloride, to the SD90 of the test substance for the Dose of 46 mg/kg; format: functional

Row | SMILES | No. of survivals [1] | SD90 [2] [mg/kg/day] | MST [3] [days] | MST [4] [days] | MST ([5]; 40 mg/kg) | MST ([6]; 160 mg/kg) | MST [9] [days] | MST [5] [days] | MST [6] [days] | also measured
1 | CN1CCCC1CCNc1nc(Nc2ccc(Cl)c(Cl)c2)nc2ccc(Cl)cc12 (stereo unspecified) | 2 | 18.5 | 2.7 | 14.2 | 1.1 days and 0.5 days | 6.1 days and 2.5 days | 0.5 |  |  | Ratio [7]: 4; MST [8]: 13.6 days
2 | CCN(CC)CCNc1nc(Nc2ccc(Cl)c(Cl)c2)nc2ccc(N)cc12 | 5 | 47 | 6.8 |  |  |  |  | 3.8 |  | No. of survivals [10]: 4; No. of toxic deaths [11]: 2; MST [12]: 29.8 days; No. of survivals [13]: 3; Ratio [14]: 1.6; MST ([9]; 20 mg/kg): 1.6 days and 2 days
3 | CCN(CC)CCNc1nc(Nc2ccc(Cl)c(Cl)c2)nc2cc(N)ccc12 | 3 | 30.5 |  |  | 3.2 days and 3.5 days | 13.2 days and 13.5 days |  |  |  | MST ([3]; 80 mg/kg): 6 days and 6.3 days; MST ([4]; 320 mg/kg): 16.8 days and 16.9 days; MST [15]: 29.8 days; No. of survivals [13]: 4; Ratio [16]: 30.5; MST ([9]; 20 mg/kg): 0.6 days and 0.9 days
4 | CCN(CC)C1CCC(Nc2nc(Nc3ccc(I)cc3)c3ccccc3n2)CC1 (stereo unspecified) | 2 |  |  | 9.9 |  |  | 0.3 | 0.5 | 14.4 | No. of survivals [17]: 2; MST ([3]; 80 mg/kg): 0.7 days and 0.5 days; MST [12]: 8.6 days; MST [18]: 9.4 days; No. of survivals ([13]; 640 mg/kg): 3 and 2
5 | CN(C)C1CCC(Nc2nc(Nc3ccc(Cl)c(Cl)c3)c3ccccc3n2)CC1 (stereo unspecified) | 2 |  | 7.9 | 9.9 | 4.1 days and 3.7 days |  | 0.3 |  | 12.9 | No. of survivals [10]: 2; No. of toxic deaths [11]: 2; MST [12]: 12.6 days; No. of survivals [13]: 3
6 | CSc1ccc(Nc2nc(NCCCN3CCCC3)c3ccccc3n2)cc1 |  | 47 |  |  |  |  |  | 1 | 6.8 | No. of toxic deaths [11]: 5; Ratio [14]: 1.6
7 | c1ccc2c(NCCCN3CCCC3)nc(Nc3nccs3)nc2c1 |  |  |  |  |  |  |  | 0.3 | 0.3 | No. of toxic deaths [11]: 3; MST [15]: 0.9 days
8 | FC(F)(F)c1ccc(Nc2nc(NCCCN3CCCC3)c3cc(Cl)ccc3n2)cc1 | 1 | 22 | 1.6 | 14.6 |  | 4.6 days and 4 days | 0.2 | 0.4 |  | MST [19]: 0.4 days; MST ([15]; 640 mg/kg): 26.5 days and 23.3 days; Ratio [20]: 3.4; No. of survivals ([13]; 640 mg/kg): 2 and 3
9 | CCN(CC)Cc1cc(Nc2nc(NCCN3CCCC3)c3ccccc3n2)ccc1O | 1 |  | 2.1 |  |  |  | 0.3 | 1.7 | 10.2 | No. of toxic deaths [11]: 1; No. of survivals [13]: 1; No. of toxic deaths [21]: 1
10 | CCN(CC)CCNc1nc(Nc2ccc(Cl)c(Cl)c2)nc2cc(NCc3ccc(Cl)c(Cl)c3)ccc12 |  | 82 |  |  | 0.1 days and 0.2 days and 0.3 days | 1.3 days and 1 days and 0.7 days |  |  |  | Ratio [22]: 0.9; MST ([3]; 80 mg/kg): 0.3 days and 0.6 days; MST ([4]; 320 mg/kg): 1.7 days and 2 days and 2.5 days; MST [8]: 8.9 days; MST ([9]; 20 mg/kg): 0.1 days and 0.2 days and 0.3 days
11 | CCN(CC)CCNc1nc(Nc2ccc(Cl)c(Cl)c2)nc2cc([N+](=O)[O-])ccc12 |  | 9.2 | 0.9 | 9.5 |  | 0.9 days and 1.1 days | 0.3 | 0.3 |  | MST [23]: 21.9 days; MST [15]: 26.9 days; Ratio [24]: 8.1; No. of survivals [13]: 3
12 | CN1CCCC1CCNc1nc(Nc2ccc(C(F)(F)F)cc2)nc2ccccc12 (stereo unspecified) |  | 16 | 3.2 | 15.5 |  |  | 1 | 1.2 | 10.5 | No. of cured [25]: 4; Ratio [26]: 4.7; No. of cured [27]: 2; MST [15]: 25.8 days
13 | FC(F)(F)c1cc(Nc2nc(NCCN3CCCC3)c3ccccc3n2)cc(C(F)(F)F)c1 |  | 105 |  |  |  |  |  | 0.2 | 0.2 | Ratio [16]: 105; MST [8]: 1 days
14 | CCN(CC)CCNc1nc(Nc2ccc(Cl)cc2)nc2ccccc12 | 3 | 35 | 6.2 |  | 4.1 days and 4.6 days |  | 1.6 |  | 11.1 | No. of survivals [10]: 2; Ratio [28]: 2.1; No. of survivals [13]: 5; No. of toxic deaths [21]: 2
15 | CCN(CC)CCNc1nc(Nc2ccc(Cl)c(Cl)c2)c2ccccc2n1 |  |  | 0.2 | 3.2 |  |  | 0.2 |  | 0.9 | MST ([8]; 640 mg/kg): 10.3 days and 5.4 days and 5.9 days; MST [29]: 0.2 days
16 | CCN1CCCC(Nc2nc(Nc3cc(Cl)cc(Cl)c3)nc3cc(Cl)ccc23)C1 (stereo unspecified) |  | 73 |  |  |  |  |  | 0.2 | 0.4 | Ratio [16]: 73; MST [8]: 1.6 days
17 | CC1(C)N=C(N)N=C(N)N1c1ccc(Cl)cc1 [CYCLOGUANIL] |  |  |  |  |  |  |  | 13.4 |  | No. of toxic deaths [11]: 5; No. of toxic deaths [30]: 5; MST ([3]; 80 mg/kg): 21.6 days and 21.9 days; MST ([9]; 20 mg/kg): 7.9 days and 8.1 days
18 | Clc1cccc(Nc2nc(NCCN3CCCC3)c3ccccc3n2)c1 |  | 97 | 1.4 | 4.2 | 0.6 days and 0.7 days | 2.8 days and 3.5 days | 0.4 |  |  | Ratio [31]: 0.8; MST ([8]; 640 mg/kg): 10.2 days and 11.1 days
19 | Brc1cccc(Nc2nc(NCCN3CCCC3)c3ccccc3n2)c1 |  | 91 | 0.4 | 5 |  | 4.4 days and 4 days | 0.2 |  |  | Ratio [32]: 0.8; MST ([8]; 640 mg/kg): 8.4 days and 8.1 days
20 | CN1CCCC1CCNc1nc(Nc2ccc(Cl)c(Cl)c2)c2ccccc2n1 (stereo unspecified) | 1 |  |  | 11.2 |  | 6.9 days and 7.1 days | 0.3 | 0.5 |  | No. of toxic deaths [11]: 2; MST ([3]; 80 mg/kg): 0.5 days and 0.7 days; No. of survivals [13]: 1; No. of toxic deaths [21]: 1 and 2
21 | CCN1CCCC(Nc2nc(Nc3ccc(Cl)c(Cl)c3)nc3cc(Cl)ccc23)C1 (stereo unspecified) |  | 63 | 0.3 | 0.3 |  |  | 0.1 |  |  | Ratio [33]: 1.2
22 | CN(C)C1CCC(Nc2nc(Nc3ccc(Cl)c(Cl)c3)nc3ccccc23)CC1 (stereo in doubt; 24) | 3 | 9.2 | 6.4 |  | 4.8 days and 3.8 days |  |  |  |  | No. of survivals ([10]; 160 mg/kg): 1 and 2; MST ([12]; 160 mg/kg): 20.1 days and 16.5 days; MST ([4]; 320 mg/kg): 24.3 days; Ratio [24]: 8.2; MST ([9]; 20 mg/kg): 0.4 days
23 | CSc1ccc(Nc2nc(NCCN3CCCC3)c3ccccc3n2)cc1 |  | 35 | 3.3 | 10.3 | 0.9 days and 0.3 days | 5.9 days and 4.7 days | 0.7 |  |  | Ratio [28]: 2.1
24 | CCN1CCCC(Nc2nc(Nc3ccc(Cl)c(Cl)c3)nc3ccc(Cl)cc23)C1 (stereo unspecified) |  | 46 |  |  |  |  | 0.1 | 0.1 | 0.3 | Ratio [34]: 1.6
